According to paper PMC6872687, “Potential for imaging the high-affinity state of the 5-HT1B receptor: a comparison of three PET radioligands with differing intrinsic activity” (EJNMMI Research, 2019):
Where “and” joins values, the source holds several entries; their conditions need not be identical. Equal entries are not always repeated. Where two headings read alike, the source gives them in different places.

Legend:
[1] = tested on: 5-HT1B receptor; experiment: PET displacement by fenfluramine-induced endogenous 5-HT release in NHP brain; assay type: in vivo, cynomolgus monkey; conditions: for Specific binding (45-123 min) in the occipital cortex: baseline PET
Description: (§1) Three female cynomolgus monkeys were supplied by Astrid Fagraeus Laboratory at the Karolinska Institutet (Solna, Sweden). Anesthesia was initiated via intramuscular injection of ketamine hydrochloride (ca. 10 mg/kg) and after, intubation was maintained by the administration of a mixture of sevoflurane, oxygen, and medical air.
(§2) The NHPs were observed continuously during the days of PET measurements. Body temperature was maintained by Bair Hugger-Model 505 (Arizant Healthcare Inc., MN) and monitored with an esophageal thermometer. Heart rate, blood pressure, respiratory rate, and oxygen saturation were continuously monitored throughout the experiments. Fluid balance was maintained by a continuous infusion of saline. The NHP head was fixed in position throughout PET data acquisition as described previously. PET measurements were conducted using a high-resolution research tomograph (Siemens). Radioactivity in the brain was measured continuously for 123 min after radioligand injection according to a preprogrammed series of 34 frames.
PET measurements using fenfluramine to evaluate the sensitivity of [^11C]1 and [^11C]3 towards endogenous 5-HT release followed an identical procedure for two NHPs (weight 6.8 and 7.0 kg). Each NHP was used in a baseline and a displacement PET measurement with intravenous infusion of fenfluramine over 5 min starting 15 min after injection of the same radioligand as used in the baseline measurement. The dose of fenfluramine was 1 mg/kg (i.v.) for both radioligands and 5 mg/kg (i.v.) for [^11C]3 only. After an unexpected complication, the study was limited to be concluded only at the lower dose level. In summary, results for [^11C]1 were acquired from this study (1 mg/kg of fenfluramine) and from Lindberg et al. (5.0 mg/kg of fenfluramine), [15] results for [^11C]2 were exclusively acquired from Finnema et al., and all results for [^11C]3 were acquired from this study. The experimental procedure in this study was designed to replicate the procedure described by Finnema et al..
(§3) Average PET images were manually co-registered to a T1-weighted brain magnetic resonance (MR) image previously obtained for each monkey. The co-registration parameters were applied to the dynamic PET data. Regions of interest (ROI) were delineated manually for the whole brain, occipital cortex, globus pallidus, caudate nucleus, putamen, ventral striatum (nucleus accumbens), cerebellum, frontal cortex, midbrain, thalamus, and hippocampus. Regional radioactivity was expressed as standardized uptake value (SUV), which was calculated as uptake (becquerels/milliliter)/injected radioactivity (becquerels) × body weight (grams).
(§4) The cerebellum was used as a reference region because this region has negligible density of 5-HT1B receptors. Specific binding to the 5-HT1B receptor was defined as the difference between the total radioactivity concentration in the target brain region and that in the cerebellum, each using the area under the time-radioactivity curve for the scan interval 45–123 min. The binding potential (BPND) was defined as the ratio of specific binding to the radioactivity concentration in the cerebellum, calculated by simplified reference tissue model (SRTM).

[2] = target: T1, 5-HT1B receptor (Homo sapiens, UniProt P28222); experiment: 5-HT1B receptor affinity (in vitro data, Fig. 1); assay type: binding; conditions: data provided by AstraZeneca
T1 sequence (P28222 whole entry): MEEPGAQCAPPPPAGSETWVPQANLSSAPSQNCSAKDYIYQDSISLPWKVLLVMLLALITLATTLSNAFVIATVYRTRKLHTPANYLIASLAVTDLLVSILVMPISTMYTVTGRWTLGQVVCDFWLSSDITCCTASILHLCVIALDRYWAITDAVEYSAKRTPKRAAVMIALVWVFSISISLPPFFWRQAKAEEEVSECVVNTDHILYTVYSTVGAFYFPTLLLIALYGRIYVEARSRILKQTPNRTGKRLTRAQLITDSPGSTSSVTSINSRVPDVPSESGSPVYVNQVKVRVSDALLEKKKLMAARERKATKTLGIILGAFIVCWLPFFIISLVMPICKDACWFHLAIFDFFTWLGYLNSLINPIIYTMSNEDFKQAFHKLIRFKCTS

[3] = logD (in vitro data, Fig. 1); assay type: physicochemical; conditions: data provided by AstraZeneca
[4] = target: T1, 5-HT1B receptor; experiment: GTPγ35S binding assay for EC50 and intrinsic activity (agonist/antagonist efficacy); assay type: biochemical; conditions: data provided by AstraZeneca; for Antagonist effect / Agonist effect: measured at 10 μM
Description: EC50 values and intrinsic activity (antagonist/agonist efficacy) were measured by comparing 5-HT1B receptor ability to bind GTPγ^35S when stimulated with 5-HT. The agonist/antagonist effect (percentage) was measured at 10 μM and EC50 in a range from 10 μM to 170 pM. EC50 was determined as the concentration at half the maximum of the dose-response curve.

[5] = tested on: 5-HT1B receptor; set-up: method as in PMID 20222157; conditions: baseline PET; results for [11C]2 acquired from Finnema et al.; cited from earlier work
[6] = tested on: 5-HT1B receptor; experiment: PET baseline and AR-A000002 pretreatment measurement of specific binding in NHP brain; assay type: in vivo, cynomolgus monkey
Description: as §1, §2
In an initial PET study to evaluate the specific binding of [^11C]3, one NHP (weight 6.9 kg) was used in a baseline measurement. This monkey was also used in a pretreatment paradigm in which the 5-HT1B antagonist AR-A000002 (AZ10419427; 2.0 mg/kg) was intravenously infused over 6 min starting at 30 min before radioligand injection.
as §3, §4

[7] = fenfluramine 1.0 mg/kg i.v. 15 min after radioligand, 45-123 min, individual monkeys
[8] = fenfluramine 1.0 mg/kg i.v., 45-123 min
[9] = fenfluramine 1.0 mg/kg i.v., individual monkeys
[10] = fenfluramine 5.0 mg/kg, 45-123 min
[11] = AR-A000002 2.0 mg/kg i.v. pretreatment vs baseline
[12] = after pretreatment with AR-A000002 2.0 mg/kg i.v.

## [11CH3]N1CCN(c2cc(F)cc3c(=O)cc(C(=O)Nc4ccc(N5CCOCC5)c(F)c4)oc23)CC1 [[^11C]1]
[1]
  Specific binding (45-123 min) in the occipital cortex: 3.2
[1]; [7]
  Decrease in specific binding, occipital cortex: 19%
[1]; [8]
  Reduction in specific binding, midbrain: 2%
  Reduction in specific binding, thalamus: 33%
[1]; [9]
  Displacement (decrease in specific binding), globus pallidus: 3% and 9%
[2]
  Ki: 0.13 nM
[3]
  logD: 2.3
[4]
  Antagonist effect: 190%

## Cc1ccc(N2CCN([11CH3])CC2)c2oc(C(=O)Nc3ccc(N4CCOCC4)cc3)cc(=O)c12 [[^11C]2]
[2]
  Ki: 0.4 nM
[3]
  logD: 1.3
[4]
  Agonist effect: 53.2%
  Antagonist effect: 48%
[5]
  Specific binding (45-123 min) in the occipital cortex: 1.9

## [11CH3]N1CCN(c2cccc3c2O[C@H](C(=O)Nc2ccc(N4CCOCC4)cc2)CC3)CC1 [[^11C]3]
[1]
  Specific binding (45-123 min) in the occipital cortex: 0.9
[1]; [7]
  Decrease in specific binding, occipital cortex: 16% and 27%
[1]; [9]
  Displacement (decrease in specific binding), globus pallidus: 4% and 11%
[1]; fenfluramine 5.0 mg/kg i.v. 15 min after radioligand, 45-123 min, individual monkeys
  Decrease in specific binding, occipital cortex: 61% and 62%
[1]; [10]
  Reduction in specific binding, frontal cortex: 68%
  Reduction in specific binding, hippocampus: 34%
[1]; fenfluramine 5.0 mg/kg, individual monkeys
  Displacement, globus pallidus: 35% and 49%
[2]
  Ki: 0.6 nM
[3]
  logD: 1.5
[6]; [11]
  Reduction of BPND, globus pallidus: 52%
  Reduction of BPND, occipital cortex: 90%
[6]; [12]
  BPND, globus pallidus: 0.23
  BPND, occipital cortex: 0.07
[6]; baseline
  BPND (SRTM), globus pallidus: 0.48
  BPND (SRTM), occipital cortex: 0.7
[6]; baseline PET, i.v., one monkey
  Maximum radioactivity in the whole brain: 2.5 SUV
  Time of maximum whole brain radioactivity: 10 min
[4]
  Agonist effect: 77.1%
  Antagonist effect: 18%
[4]; range 10 μM to 170 pM
  EC50: 0.97 nM
